# Results taken from patent US20250346585A1 (Alexion Pharmaceuticals, Inc., priority 2022, published 2025).
# Where two headings read alike, the source gives them in different places.
# Molecular target: Human complement C1s enzyme (Homo sapiens (Human), UniProt P09871)
# Test: Human C1s enzyme assay
# Assay type: biochemical
# Settings: read-out: IC50 (Stars)
# Method in brief: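 Purified serum-derived human C1s (1.16 nM final) preincubated 5 min at room temperature with compound in 50 mM Tris, 1 M NaCl, pH 7.5. Z-L-Lys-SBzl thioester substrate and DTNB added (100 μM each, final); A405 read every 30 s for 30 min. IC50 from nonlinear regression of reaction rates against compound concentration.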
# [1] = Human C1s enzyme assay of Example 3
# [2] = Human complement C1s enzyme 1.16 nM, substrate Z-L-Lys-SBzl 100 μM, assay of Example 3
# Sequence of Human complement C1s enzyme (P09871 438-688 limits assumed): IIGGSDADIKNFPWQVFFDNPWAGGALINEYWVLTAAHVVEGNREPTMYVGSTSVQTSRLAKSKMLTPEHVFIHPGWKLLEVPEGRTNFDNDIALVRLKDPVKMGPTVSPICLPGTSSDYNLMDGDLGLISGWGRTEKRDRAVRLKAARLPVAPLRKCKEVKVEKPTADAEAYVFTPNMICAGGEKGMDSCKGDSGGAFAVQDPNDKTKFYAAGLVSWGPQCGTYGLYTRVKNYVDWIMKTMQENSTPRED
# Sequence of Human complement C1s enzyme (P09871 16-437 partner limits assumed): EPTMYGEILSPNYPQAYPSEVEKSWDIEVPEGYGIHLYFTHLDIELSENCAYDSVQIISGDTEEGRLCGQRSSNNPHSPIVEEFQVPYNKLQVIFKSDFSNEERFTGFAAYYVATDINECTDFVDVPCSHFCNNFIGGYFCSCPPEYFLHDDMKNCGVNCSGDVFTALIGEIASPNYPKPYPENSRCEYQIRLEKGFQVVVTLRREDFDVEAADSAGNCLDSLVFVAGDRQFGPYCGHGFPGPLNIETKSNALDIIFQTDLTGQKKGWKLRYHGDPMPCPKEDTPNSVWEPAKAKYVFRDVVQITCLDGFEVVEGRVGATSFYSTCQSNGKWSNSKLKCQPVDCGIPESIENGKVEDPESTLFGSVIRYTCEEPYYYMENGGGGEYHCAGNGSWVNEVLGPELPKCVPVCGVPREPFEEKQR
SMILES,IC50 [1],IC50 [2],other results
"Cc1ccc(Oc2ccc(C(=O)NCC(=O)N3C[C@H](OC(F)F)C[C@H]3C(=O)N[C@H](C)c3cc(C(=N)N)cs3)cc2)cc1 [Compound 6, (2S,4R)—N—((R)-1-(4-carbamimidoylthiophen-2-yl)ethyl)-4-(difluoromethoxy)-1-((4-(p-tolyloxy)benzoyl)glycyl)pyrrolidine-2-carboxamide]",< 100 nM,,
"C[C@@H](NC(=O)[C@@H]1CC2(CN1C(=O)CNC(=O)c1ccc3sc4ccccc4c3c1)OCCO2)c1cc(C(=N)N)cs1 [Compound 254, (S)—N—((R)-1-(4-carbamimidoylthiophen-2-yl)ethyl)-7-((dibenzo[b,d]thiophene-2-carbonyl)glycyl)-1,4-dioxa-7-azaspiro[4.4]nonane-8-carboxamide]",,< 100 nM,
"NCCCC(=O)Nc1csc(CNC(=O)[C@@H]2CC3(CN2C(=O)CNC(=O)c2ccc(Oc4ccc(F)cc4)cc2)OCCO3)c1 [Compound 320, (S)-N-((4-(4-aminobutanamido)thiophen-2-yl)methyl)-7-((4-(4-fluorophenoxy)benzoyl)glycyl)-1,4-dioxa-7-azaspiro[4.4]nonane-8-carboxamide]",,> 1000 nM,
"CS(=O)(=O)c1ccc(-c2ccc(C(=O)NCC(=O)N3CC4(C[C@H]3C(=O)NCc3cc(C(=N)N)cs3)OCCO4)cc2)c(F)c1 [Compound 215, (S)—N-((4-carbamimidoylthiophen-2-yl)methyl)-7-((2′-fluoro-4′-(methylsulfonyl)-[1,1′-biphenyl]-4-carbonyl)glycyl)-1,4-dioxa-7-azaspiro[4.4]nonane-8-carboxamide]",,< 100 nM,
"C[C@@H](NC(=O)[C@@H]1C[C@@H](OC(F)F)CN1C(=O)CNC(=O)c1ccc2c(c1)S(=O)(=O)c1ccccc1-2)c1cc(C(=N)N)cs1 [Compound 362, (2S,4R)—N—((R)-1-(4-carbamimidoylthiophen-2-yl)ethyl)-4-(difluoromethoxy)-1-((5,5-dioxidodibenzo[b,d]thiophene-3-carbonyl)glycyl) pyrrolidine-2-carboxamide]",,< 100 nM,
"C[C@@H](NC(=O)[C@@H]1C[C@@H](S(C)(=O)=O)CN1C(=O)CNC(=O)c1ccc2c(c1)-c1ccccc1C2(C)C)c1cc(C(=N)N)cs1 [Compound 178, (2S,4R)—N—((R)-1-(4-carbamimidoylthiophen-2-yl)ethyl)-1-((9,9-dimethyl-9H-fluorene-3-carbonyl)glycyl)-4-(methylsulfonyl)pyrrolidine-2-carboxamide]",< 100 nM,,
"C[C@@H](NC(=O)[C@@H]1CC2(CN1C(=O)CNC(=O)c1ccc3c(c1)-c1ccccc1C3(F)F)OCCO2)c1cc(-c2nccs2)cs1 [Compound 114, (S)-7-((9,9-difluoro-9H-fluorene-3-carbonyl)glycyl)-N—((R)-1-(4-(thiazol-2-yl)thiophen-2-yl)ethyl)-1,4-dioxa-7-azaspiro[4.4]nonane-8-carboxamide]",> 1000 nM,,
"COC[C@@]1(F)C[C@@H](C(=O)N[C@H](C)c2cc(C(=N)N)cs2)N(C(=O)CNC(=O)c2ccc(Oc3ccc(C)cc3)cc2)C1 [Compound 19, (2S,4R)—N—((R)-1-(4-carbamimidoylthiophen-2-yl)ethyl)-4-fluoro-4-(methoxymethyl)-1-((4-(p-tolyloxy)benzoyl)glycyl)pyrrolidine-2-carboxamide]",< 100 nM,,
"C[C@H](O)[C@H](O)[C@@H](O)[C@@H](O)CNCC(=O)NCCOC[C@@]12C[C@@H]1N(C(=O)CNC(=O)CCCOc1ccccc1)[C@H](C(=O)N[C@H](C)c1cc(C(=N)N)cs1)C2 [Compound 2, (1S,3S,5R)—N—((R)-1-(4-carbamimidoylthiophen-2-yl)ethyl)-2-((4-phenoxybutanoyl)glycyl)-5-((2-(2-(((2S,3S,4S,5S)-2,3,4,5-tetrahydroxyhexyl)amino)acetamido)ethoxy)methyl)-2-azabicyclo[3.1.0]hexane-3-carboxamide]",< 100 nM,,
"COC[C@H]1C[C@@H](C(=O)N[C@H](C)c2cc(C(=N)N)cs2)N(C(=O)CNC(=O)c2ccc3oc4ccccc4c3c2)C1 (relative stereo) [Compound 219, (2S,4S*)—N—((R)-1-(4-carbamimidoylthiophen-2-yl)ethyl)-1-((dibenzo[b,d]furan-2-carbonyl)glycyl)-4-(methoxymethyl)pyrrolidine-2-carboxamide]",,< 100 nM,
"C[C@@H](NC(=O)[C@@H]1C[C@H](C2OCCCO2)CN1C(=O)CNC(=O)c1ccc(Oc2ccc(F)cc2)cc1)c1cc(C(=N)N)cs1 (relative stereo) [Compound 161, (2S,4S*)—N—((R)-1-(4-carbamimidoylthiophen-2-yl)ethyl)-4-(1,3-dioxan-2-yl)-1-((4-(4-fluorophenoxy)benzoyl)glycyl)pyrrolidine-2-carboxamide]",< 100 nM,,
"N=C(N)c1csc(CNC(=O)[C@@H]2CC3(CNC3)CN2C(=O)CNC(=O)CCCOc2ccccc2)c1 [Compound 273, (S)—N-((4-carbamimidoylthiophen-2-yl)methyl)-6-((4-phenoxybutanoyl)glycyl)-2,6-diazaspiro[3.4]octane-7-carboxamide]",,< 100 nM,
"C[C@@H](NC(=O)[C@@H]1C[C@@H](OC(F)F)CN1C(=O)CNC(=O)c1ccc(Oc2ccc(C(F)F)cc2)cc1)c1cc(C(=N)N)cs1 [Compound 65, (2S,4R)—N—((R)-1-(4-carbamimidoylthiophen-2-yl)ethyl)-4-(difluoromethoxy)-1-((4-(4-(difluoromethyl)phenoxy)benzoyl)glycyl)pyrrolidine-2-carboxamide]",< 100 nM,,
"N=C(N)c1csc(CNC(=O)[C@@H]2CC3(CN2C(=O)CNC(=O)c2ccc(-c4cnn(Cc5ccccc5)c4)cc2)OCCO3)c1 [Compound 198, (S)-7-((4-(1-benzyl-1H-pyrazol-4-yl)benzoyl)glycyl)-N-((4-carbamimidoylthiophen-2-yl)methyl)-1,4-dioxa-7-azaspiro[4.4]nonane-8-carboxamide]",,< 100 nM,
"C[C@@H](NC(=O)[C@@H]1CC2(CN1C(=O)CNC(=O)c1ccc3cc4ccccc4cc3c1)OCCO2)c1cc(C(=N)N)cs1 [Compound 78, (S)-7-((anthracene-2-carbonyl)glycyl)-N—((R)-1-(4-carbamimidoylthiophen-2-yl)ethyl)-1,4-dioxa-7-azaspiro[4.4]nonane-8-carboxamide]",< 100 nM,,
"C[C@@H](NC(=O)[C@@H]1C[C@@H](c2nccs2)CN1C(=O)CNC(=O)c1ccc(Oc2ccc(F)cc2)cc1)c1cc(C(=N)N)cs1 [Compound 412, (2S,4R)—N—((R)-1-(4-carbamimidoylthiophen-2-yl)ethyl)-1-((4-(4-fluorophenoxy)benzoyl)glycyl)-4-(thiazol-2-yl)pyrrolidine-2-carboxamide]",,,"IC50 (Human complement C1s enzyme 1.16 nM, substrate Z-L-Lys-SBzl, assay of Example 3): < 100 nM"
"Cn1ncc2cc(-c3ccc(C(=O)NCC(=O)N4CC5(C[C@H]4C(=O)NCc4cc(C(=N)N)cs4)OCCO5)cc3)ccc21 [Compound 140, (S)—N-((4-carbamimidoylthiophen-2-yl)methyl)-7-((4-(1-methyl-1H-indazol-5-yl)benzoyl)glycyl)-1,4-dioxa-7-azaspiro[4.4]nonane-8-carboxamide]",< 100 nM,,
"C[C@@H](NC(=O)[C@@H]1C[C@@H](S(C)(=O)=O)CN1C(=O)CNC(=O)c1ccc2c(c1)C(C)(C)c1ccccc1-2)c1cc(C(=N)N)cs1 [Compound 369, (2S,4R)—N—((R)-1-(4-carbamimidoylthiophen-2-yl)ethyl)-1-((9,9-dimethyl-9H-fluorene-2-carbonyl)glycyl)-4-(methylsulfonyl)pyrrolidine-2-carboxamide]",,< 100 nM,
